For test [1], the target named is T1, Xanthine oxidase (XO) (Bos taurus, UniProt P80457). The test is described as follows: uric acid formation, Morrison fit. The class given is biochemical.
Test [2] concerns the target T1, Xanthine oxidase (XO). Kind of test: uric acid formation, absorbance […] nm. It counts as biochemical.

T1 sequence (P80457 2-1332): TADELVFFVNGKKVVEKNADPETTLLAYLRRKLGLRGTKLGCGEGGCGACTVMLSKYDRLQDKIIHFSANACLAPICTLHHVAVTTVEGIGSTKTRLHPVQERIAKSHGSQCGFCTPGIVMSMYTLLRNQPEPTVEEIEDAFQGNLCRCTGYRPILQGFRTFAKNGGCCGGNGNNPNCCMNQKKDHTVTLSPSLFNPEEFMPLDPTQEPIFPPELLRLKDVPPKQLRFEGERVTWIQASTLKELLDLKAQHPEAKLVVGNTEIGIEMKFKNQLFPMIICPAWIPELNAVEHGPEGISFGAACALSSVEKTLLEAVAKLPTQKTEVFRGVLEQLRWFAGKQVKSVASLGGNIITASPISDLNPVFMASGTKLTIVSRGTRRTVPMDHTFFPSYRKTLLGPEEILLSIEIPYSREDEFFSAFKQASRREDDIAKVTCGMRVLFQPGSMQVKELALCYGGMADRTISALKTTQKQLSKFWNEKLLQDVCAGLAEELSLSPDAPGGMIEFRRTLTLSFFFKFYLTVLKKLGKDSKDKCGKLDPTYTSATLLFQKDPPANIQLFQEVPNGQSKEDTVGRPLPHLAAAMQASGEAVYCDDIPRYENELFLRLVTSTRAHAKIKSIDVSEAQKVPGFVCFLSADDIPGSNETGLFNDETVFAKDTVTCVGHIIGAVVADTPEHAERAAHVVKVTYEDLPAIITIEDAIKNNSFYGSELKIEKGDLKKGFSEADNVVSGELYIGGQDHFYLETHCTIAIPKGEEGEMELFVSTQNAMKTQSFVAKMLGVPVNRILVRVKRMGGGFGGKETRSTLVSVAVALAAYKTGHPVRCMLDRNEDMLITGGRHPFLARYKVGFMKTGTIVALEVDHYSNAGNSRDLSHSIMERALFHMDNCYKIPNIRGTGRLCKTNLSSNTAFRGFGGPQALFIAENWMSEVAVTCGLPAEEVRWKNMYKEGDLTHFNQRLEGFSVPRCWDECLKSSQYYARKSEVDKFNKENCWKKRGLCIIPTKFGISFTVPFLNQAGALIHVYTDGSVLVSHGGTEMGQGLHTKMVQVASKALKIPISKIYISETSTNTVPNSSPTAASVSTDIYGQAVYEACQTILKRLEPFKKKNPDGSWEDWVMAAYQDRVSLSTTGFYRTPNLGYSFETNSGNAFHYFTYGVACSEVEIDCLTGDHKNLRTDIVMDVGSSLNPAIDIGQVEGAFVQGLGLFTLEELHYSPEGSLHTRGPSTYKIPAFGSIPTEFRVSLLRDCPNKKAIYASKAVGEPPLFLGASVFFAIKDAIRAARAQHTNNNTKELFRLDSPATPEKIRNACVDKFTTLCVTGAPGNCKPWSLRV

Broadly, the Ki is the equilibrium dissociation constant of an inhibitor or competing ligand from its target. Higher therefore signals weaker binding. What is called IC50 is the concentration that inhibits the measured activity by half. For `COc1cc(C)cc2c1C(=O)c1c(O)cccc1C2=O` [1-O-methyl chrysophanol], on Xanthine oxidase (XO) [1], the Ki stood at 2.22 ± 0.307 µM. Moreover, inhibition at Xanthine oxidase (XO) [2] was half-maximal at 24.8 ± 0.072 µM (IC50).

On Xanthine oxidase (XO) [1], `Cc1cc(O)c2c(c1)C(=O)c1cccc(O)c1C2=O` [Chrysophanol] had a Ki of 38.7 ± 2.71 µM. Also, the half-maximal inhibitory concentration (IC50) on Xanthine oxidase (XO) [2] is 200.9 ± 0.04 µM.
